The text below walks through data of the supplement of paper PMC10307832.

Common to all, as to experiment: relative viability (nuclei count vs DMSO), 5 days (fraction); higher = more cells survive
Compound in test [1]: CC1=C(C=C(C=C1)NC(=O)C2=CC(=CC=C2)C(C)(C)C#N)NC3=CC4=C(C=C3)N=CN(C4=O)C [AZ628] + CC(C)C[C@H](NC(=O)[C@H](Cc1ccccc1)NC(=O)c1cnccn1)B(O)O [Bortezomib] (partner 0.002 µM)
The gist of the method: (§1)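 Cells from lung cancer lines were seeded into 1536-well plates and, one day later, dosed by pin tool. Treatments were either a single drug or a fixed dose of an anchor drug with five library-drug doses (not always all listed) in √10 steps. After 5 days, nuclei were stained in a one-step fixation (final 0.05% Triton X-100, 1% formaldehyde, 1 ug/ml Hoechst) and counted on 4× images, and relative viability is the treated-to-vehicle nuclei ratio, as the median of duplicate plates.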

Compound in test [2]: CC1=C(C=C(C=C1)NC(=O)C2=CC(=CC=C2)C(C)(C)C#N)NC3=CC4=C(C=C3)N=CN(C4=O)C [AZ628] + Cc1nc(NC(=O)N2CCC[C@H]2C(N)=O)sc1-c1ccnc(C(C)(C)C(F)(F)F)c1 [Alpelisib] (partner 2 µM)
The gist of the method: as §1

Compound in test [3]: C1CC2=C(C1)C=C(C=C2)OC3=NC(=C4C(=N3)N(C=N4)CC5=CC=C(C=C5)C6=CC=CC=C6)N[C@@H](CC7=CC=CC=C7)CO [QS11] + O=C(CCCCCCC(=O)Nc1ccccc1)NO [Vorinostat] (partner 1 µM)
Summed up:
as §1

Compound in test [4]: C1CC2=C(C1)C=C(C=C2)OC3=NC(=C4C(=N3)N(C=N4)CC5=CC=C(C=C5)C6=CC=CC=C6)N[C@@H](CC7=CC=CC=C7)CO [QS11] + NC(=O)Nc1cc(-c2cccc(F)c2)sc1C(=O)N[C@H]1CCCNC1 [AZD7762] (partner 0.2 µM)
Summed up:
as §1

Turning to LXF-289, the relative viability in test [1] (first compound 0.08 µM) worked out at 0.994; in test [1] (first compound 0.253 µM), 1.03; in test [1] (first compound 0.8 µM), 0.915; in test [1] (first compound 2.53 µM), 0.917; in test [1] (first compound 8 µM), 0.648; in test [2] (first compound 0.08 µM), 1.01. For the same cell line, the relative viability in test [2] (first compound 0.253 µM) amounted to 1.01; in test [2] (first compound 0.8 µM), 0.963; in test [2] (first compound 2.53 µM) it was 0.961; in test [2] (first compound 8 µM), 0.626; in test [3] (first compound 0.08 µM) it was 0.772; in test [3] (first compound 0.253 µM), 0.828. Moreover, the relative viability in test [3] (first compound 0.8 µM) was 0.724; in test [3] (first compound 2.53 µM) it was 0.719; in test [3] (first compound 8 µM), 0.637; in test [4] (first compound 0.08 µM), 1.14; in test [4] (first compound 0.253 µM), 1.08; in test [4] (first compound 0.8 µM) it was 0.899. Also, the relative viability in test [4] (first compound 2.53 µM) was determined as 1; in test [4] (first compound 8 µM), 0.93.

Take NCI-H23: the relative viability in test [1] (first compound 0.08 µM) stood at 1.12; in test [1] (first compound 0.253 µM), 1.01; in test [1] (first compound 0.8 µM), 0.805; in test [1] (first compound 2.53 µM), 0.887; in test [1] (first compound 8 µM), 0.551; in test [2] (first compound 0.08 µM), 0.745. In addition, the relative viability in test [2] (first compound 0.253 µM) stood at 0.622; in test [2] (first compound 0.8 µM) it was 0.305; in test [2] (first compound 2.53 µM), 0.501; in test [2] (first compound 8 µM), 0.377; in test [3] (first compound 0.08 µM), 0.542; in test [3] (first compound 0.253 µM), 0.6. The relative viability in test [3] (first compound 0.8 µM) worked out at 0.564; in test [3] (first compound 2.53 µM), 0.544; in test [3] (first compound 8 µM), 0.491; in test [4] (first compound 0.08 µM), 0.229; in test [4] (first compound 0.253 µM), 0.252; in test [4] (first compound 0.8 µM) it was 0.278. The figures for the relative viability in test [4] (first compound 2.53 µM) and in test [4] (first compound 8 µM) were 0.208 and 0.216, respectively.

As to NCI-H322M, the relative viability was 1.36 in test [1] (first compound 0.08 µM); 1.46 in test [1] (first compound 0.253 µM); 1.28 in test [1] (first compound 0.8 µM); 1.38 in test [1] (first compound 2.53 µM); 1.11 in test [1] (first compound 8 µM); 0.925 in test [2] (first compound 0.08 µM). The relative viability was found to be 0.719 in test [2] (first compound 0.253 µM); 0.824 in test [2] (first compound 0.8 µM); 0.747 in test [2] (first compound 2.53 µM); 0.655 in test [2] (first compound 8 µM); 0.858 in test [3] (first compound 0.08 µM); 0.997 in test [3] (first compound 0.253 µM). The relative viability in test [3] (first compound 0.8 µM) amounted to 1.05; in test [3] (first compound 2.53 µM) it was 1.16; in test [3] (first compound 8 µM), 1.41; in test [4] (first compound 0.08 µM), 0.525; in test [4] (first compound 0.253 µM), 0.515; in test [4] (first compound 0.8 µM), 0.477. Further, the relative viability in test [4] (first compound 2.53 µM) stood at 0.53; in test [4] (first compound 8 µM), 0.552.

Consider NCI-H441, for which the relative viability worked out at 0.733 in test [1] (first compound 0.08 µM); 0.47 in test [1] (first compound 0.253 µM); 0.973 in test [1] (first compound 0.8 µM); 0.454 in test [1] (first compound 2.53 µM); 0.441 in test [1] (first compound 8 µM); 0.781 in test [2] (first compound 0.08 µM). Moreover, the relative viability in test [2] (first compound 0.253 µM) was 0.769; in test [2] (first compound 0.8 µM) it was 0.814; in test [2] (first compound 2.53 µM) it was 0.637; in test [2] (first compound 8 µM), 0.802; in test [3] (first compound 0.08 µM), 0.855; in test [3] (first compound 0.253 µM), 0.857. In addition, the relative viability in test [3] (first compound 0.8 µM) was 0.658; in test [3] (first compound 2.53 µM), 0.53; in test [3] (first compound 8 µM), 0.717; in test [4] (first compound 0.08 µM) it was 1.02; in test [4] (first compound 0.253 µM) it was 1.39; in test [4] (first compound 0.8 µM), 0.963. In addition, the results for the relative viability in test [4] (first compound 2.53 µM) and in test [4] (first compound 8 µM) were 0.964 and 0.942, respectively.

NCI-H460: the relative viability in test [1] (first compound 0.08 µM) amounted to 1.18; in test [1] (first compound 0.253 µM), 1.13; in test [1] (first compound 0.8 µM), 0.8; in test [1] (first compound 2.53 µM), 0.994; in test [1] (first compound 8 µM), 0.952; in test [2] (first compound 0.08 µM), 0.459. In addition, the relative viability was 0.335 in test [2] (first compound 0.253 µM); 0.325 in test [2] (first compound 0.8 µM); 0.271 in test [2] (first compound 2.53 µM); 0.13 in test [2] (first compound 8 µM); 0.938 in test [3] (first compound 0.08 µM); 0.811 in test [3] (first compound 0.253 µM). Further, the relative viability in test [3] (first compound 0.8 µM) is 0.541; in test [3] (first compound 2.53 µM) it was 0.687; in test [3] (first compound 8 µM), 0.212; in test [4] (first compound 0.08 µM), 0.703; in test [4] (first compound 0.253 µM), 0.644; in test [4] (first compound 0.8 µM), 0.493. Moreover, the relative viability in test [4] (first compound 2.53 µM) was 0.638; in test [4] (first compound 8 µM), 0.889.

For NCI-H596, the relative viability in test [1] (first compound 0.08 µM) was 1; in test [1] (first compound 0.253 µM), 1.03; in test [1] (first compound 0.8 µM), 1.09; in test [1] (first compound 2.53 µM) it was 1.09; in test [1] (first compound 8 µM), 1.27; in test [2] (first compound 0.08 µM) it was 0.504. Further, the relative viability worked out at 0.553 in test [2] (first compound 0.253 µM); 0.567 in test [2] (first compound 0.8 µM); 0.498 in test [2] (first compound 2.53 µM); 0.422 in test [2] (first compound 8 µM); 0.52 in test [3] (first compound 0.08 µM); 0.51 in test [3] (first compound 0.253 µM). Moreover, the relative viability in test [3] (first compound 0.8 µM) stood at 0.501; in test [3] (first compound 2.53 µM) it was 0.623; in test [3] (first compound 8 µM) it was 0.593; in test [4] (first compound 0.08 µM) it was 1.07; in test [4] (first compound 0.253 µM), 0.94; in test [4] (first compound 0.8 µM), 1.22. The relative viability was 1.03 in test [4] (first compound 2.53 µM) and 1.27 in test [4] (first compound 8 µM).

NCI-H647: the relative viability in test [1] (first compound 0.08 µM) came out at 0.984; in test [1] (first compound 0.253 µM) it was 0.905; in test [1] (first compound 0.8 µM) it was 0.903; in test [1] (first compound 2.53 µM) it was 0.947; in test [1] (first compound 8 µM) it was 1.28; in test [2] (first compound 0.08 µM), 1.3. Moreover, the relative viability in test [2] (first compound 0.253 µM) came out at 0.952; in test [2] (first compound 0.8 µM), 0.842; in test [2] (first compound 2.53 µM), 1.09; in test [2] (first compound 8 µM) it was 0.858; in test [3] (first compound 0.08 µM), 0.623; in test [3] (first compound 0.253 µM), 0.801. Further, the relative viability is 0.62 in test [3] (first compound 0.8 µM); 0.387 in test [3] (first compound 2.53 µM); 0.356 in test [3] (first compound 8 µM); 0.441 in test [4] (first compound 0.08 µM); 0.302 in test [4] (first compound 0.253 µM); 0.592 in test [4] (first compound 0.8 µM). Besides, the relative viability was found to be 0.385 in test [4] (first compound 2.53 µM) and 0.565 in test [4] (first compound 8 µM).
